# What was measured:
# Hepatitis B Virus (HBV) [1] = assay: Serum HBV DNA levels in pHBV model mice (qPCR); assay type: in vivo; details: single s.c. injection day 1, Example 7
# Source text: (§1) Six to eight-week-old female NOD.CB17-Prkdscid/NcrCrl (NOD-SCID) mice were transiently transfected in vivo with MC-HBV1.3 by hydrodynamic tail vein injection (Yang P L et al. “Hydrodynamic injection of viral DNA: a mouse model of acute hepatitis B virus infection,” PNAS USA 2002 Vol. 99: p. 13825-13830), administered 30 to 45 days prior to administration of an HBV RNAi agent or control. MC-HBV1.3 is a plasmid-derived minicircle that contains the same terminally redundant human hepatitis B virus sequence HBV1.3 as in plasmid pHBV1.3 and in the HBV1.3.32 transgenic mice (GenBank accession #V01460) (Guidotti L G et al., “High-level hepatitis B virus replication in transgenic mice,” J Virol 1995 Vol. 69, p 6158-6169.). 5 or 10 μg MC-HBV1.3 in Ringer's Solution in a total volume of 10% of the animal's body weight was injected into mice via tail vein to create pHBV model of chronic HBV infection. The solution was injected through a 27-gauge needle in 5-7 seconds as previously described (Zhang G et al., “High levels of foreign gene expression in hepatocytes after tail vein injection of naked plasmid DNA.” Human Gene Therapy 1999 Vol. 10, p 1735-1737.). At pre-dose (either day 1 pre-dose, day −1, or day −2), Hepatitis B surface antigen (HBsAg) HBsAg expression levels in serum were measured by ELISA and the mice were grouped according to average HBsAg expression levels.
# (§2) HBV expression levels were normalized to pre-administration expression levels and to control mice injected with phosphate buffered saline (“PBS”).
# Equal volumes of serum from mice in a group or subgroup were pooled to a final volume of 100 μL. DNA was isolated from serum samples using the QIAamp MinElute Virus Spin Kit (Qiagen, Valencia, Calif.) following the manufacturer's instructions. Sterile 0.9% saline was added to each sample to a final volume of 200 μL. Serum samples were added to tubes containing buffer and protease. Carrier RNA was added to aid in the isolation of small amounts of DNA. […] After incubating 15 min at 56° C., nucleic acids were precipitated from the lysates with ethanol and the entire solution applied to a column. After washing, the samples were eluted into a volume of 50 μL Buffer AVE.
# The number of copies of HBV genomes in DNA isolated from the pHBV mouse model serum was determined by qPCR. Plasmid pSEAP-HBV353-777, encoding a short segment of the HBV genome within the S gene (bases 353-777 of GenBank accession #V01460), was used to create a six log standard curve. Samples with recovery of DNA below 2 standard deviations from the average, based on detection of pHCR/UbC-SEAP were omitted. TaqMan chemistry-based primers and probes with fluor/ZEN/IBFQ are utilized.
# qPCR assays were performed on a 7500 Fast or StepOne Plus Real-Time PCR system (Life Technologies). For evaluation of HBV DNA in serum, DNA was isolated from singlet or duplicate purification steps from pooled group serum samples. Quantitations of HBV DNA and recovery control plasmid were determined by qPCR reactions performed in triplicate. The probes to quantitate HBV and pHCR/UbC-SEAP were included in each reaction.
# Hepatitis B Virus (HBV) [2] = assay: Serum HBeAg levels in pHBV model mice (ELISA); assay type: in vivo; parameters: key to Average HBeAg levels normalized to pre-treatment and PBS control: ratio to pre-treatment level, divided by PBS control ratio; details: for Average HBeAg fold knockdown normalized to pre-treatment and PBS control / Average HBeAg levels normalized to pre-treatment and PBS control: single s.c. injection day 1, Example 7; for Average HBeAg levels normalized to pre-treatment and PBS control: pooled serum
# Source text: as §1, §2
# HBeAg analysis was performed with the HBeAg enzyme linked immunosorbent assay (ELISA) as described by the manufacturer (DiaSorin) using serum diluted 4- to 20-fold in 5% nonfat dry milk. The amount of antigen was determined in the linear range of the assay and quantitated against HBeAg protein standards (Fitzgerald Industries International, catalog #30-AH18, Acton, Mass.).
# HBeAg expression for each animal was normalized to the control group of mice injected with PBS in order to account for the non-treatment related decline in expression of MC-HBV1.3. For evaluation of HBeAg in serum, HBeAg is analyzed from pooled group or subgroup serum samples. First, the HBeAg level for each pooled group or subgroup was divided by the pre-treatment level of expression in the same group or subgroup in order to determine the ratio of expression “normalized to pre-treatment”. Expression at a specific time point was then normalized to the control group by dividing the “normalized to pre-treatment” ratio for a group or subgroup by the average “normalized to pre-treatment” ratio of all samples from the normal PBS control group.
substance,measurement,setting,value
AD04982: HBV RNAi agent duplex AM06464-AS/AM06150-SS (antisense UACCAAUUUAUGCCUACAGCC; sense GGCUGUAGGCAUAAAUUGGUA; chemistry not fully specified),Average Serum HBV DNA levels normalized to pre-treatment and PBS control,"Hepatitis B Virus (HBV) [1]; Day 8, 1.0 mg/kg",0.358 ± 0.207
same,Average Serum HBV DNA levels normalized to pre-treatment and PBS control,"Hepatitis B Virus (HBV) [1]; Day 8, 2.0 mg/kg",0.516 ± 0.163
same,Average Serum HBV DNA levels normalized to pre-treatment and PBS control,"Hepatitis B Virus (HBV) [1]; Day 15, 1.0 mg/kg",0.428 ± 0.073
same,Average Serum HBV DNA levels normalized to pre-treatment and PBS control,"Hepatitis B Virus (HBV) [1]; Day 15, 2.0 mg/kg",0.523 ± 0.264
same,Average Serum HBV DNA levels normalized to pre-treatment and PBS control,"Hepatitis B Virus (HBV) [1]; Day 22, 1.0 mg/kg",0.433 ± 0.220
same,Average Serum HBV DNA levels normalized to pre-treatment and PBS control,"Hepatitis B Virus (HBV) [1]; Day 22, 2.0 mg/kg",0.244 ± 0.123
same,Average Serum HBV DNA levels normalized to pre-treatment and PBS control,"Hepatitis B Virus (HBV) [1]; Day 29, 1.0 mg/kg",0.474 ± 0.090
same,Average Serum HBV DNA levels normalized to pre-treatment and PBS control,"Hepatitis B Virus (HBV) [1]; Day 29, 2.0 mg/kg",0.241 ± 0.085
same,Average Serum HBV DNA levels normalized to pre-treatment and PBS control,"Hepatitis B Virus (HBV) [1]; Day 36, 1.0 mg/kg",0.509 ± 0.163
same,Average Serum HBV DNA levels normalized to pre-treatment and PBS control,"Hepatitis B Virus (HBV) [1]; Day 36, 2.0 mg/kg",0.543 ± 0.079
same,Average HBeAg fold knockdown normalized to pre-treatment and PBS control,"Hepatitis B Virus (HBV) [2]; Day 8, 1.0 mg/kg",2.1 Fold KD
same,Average HBeAg levels normalized to pre-treatment and PBS control,"Hepatitis B Virus (HBV) [2]; Day 8, 1.0 mg/kg",0.471
same,Average HBeAg fold knockdown normalized to pre-treatment and PBS control,"Hepatitis B Virus (HBV) [2]; Day 8, 2.0 mg/kg",3.0 Fold KD
same,Average HBeAg levels normalized to pre-treatment and PBS control,"Hepatitis B Virus (HBV) [2]; Day 8, 2.0 mg/kg",0.335
same,Average HBeAg fold knockdown normalized to pre-treatment and PBS control,"Hepatitis B Virus (HBV) [2]; Day 15, 1.0 mg/kg",2.4 Fold KD
same,Average HBeAg levels normalized to pre-treatment and PBS control,"Hepatitis B Virus (HBV) [2]; Day 15, 1.0 mg/kg",0.424
same,Average HBeAg fold knockdown normalized to pre-treatment and PBS control,"Hepatitis B Virus (HBV) [2]; Day 15, 2.0 mg/kg",3.2 Fold KD
same,Average HBeAg levels normalized to pre-treatment and PBS control,"Hepatitis B Virus (HBV) [2]; Day 15, 2.0 mg/kg",0.310
same,Average HBeAg fold knockdown normalized to pre-treatment and PBS control,"Hepatitis B Virus (HBV) [2]; Day 22, 1.0 mg/kg",1.8 Fold KD
same,Average HBeAg levels normalized to pre-treatment and PBS control,"Hepatitis B Virus (HBV) [2]; Day 22, 1.0 mg/kg",0.562
same,Average HBeAg fold knockdown normalized to pre-treatment and PBS control,"Hepatitis B Virus (HBV) [2]; Day 22, 2.0 mg/kg",2.4 Fold KD
same,Average HBeAg levels normalized to pre-treatment and PBS control,"Hepatitis B Virus (HBV) [2]; Day 22, 2.0 mg/kg",0.411
same,Average HBeAg fold knockdown normalized to pre-treatment and PBS control,"Hepatitis B Virus (HBV) [2]; Day 29, 1.0 mg/kg",2.0 Fold KD
same,Average HBeAg levels normalized to pre-treatment and PBS control,"Hepatitis B Virus (HBV) [2]; Day 29, 1.0 mg/kg",0.513
same,Average HBeAg fold knockdown normalized to pre-treatment and PBS control,"Hepatitis B Virus (HBV) [2]; Day 29, 2.0 mg/kg",2.3 Fold KD
same,Average HBeAg levels normalized to pre-treatment and PBS control,"Hepatitis B Virus (HBV) [2]; Day 29, 2.0 mg/kg",0.442
same,Average HBeAg fold knockdown normalized to pre-treatment and PBS control,"Hepatitis B Virus (HBV) [2]; Day 36, 1.0 mg/kg",1.4 Fold KD
same,Average HBeAg levels normalized to pre-treatment and PBS control,"Hepatitis B Virus (HBV) [2]; Day 36, 1.0 mg/kg",0.705
same,Average HBeAg fold knockdown normalized to pre-treatment and PBS control,"Hepatitis B Virus (HBV) [2]; Day 36, 2.0 mg/kg",2.0 Fold KD
same,Average HBeAg levels normalized to pre-treatment and PBS control,"Hepatitis B Virus (HBV) [2]; Day 36, 2.0 mg/kg",0.500
same,fold decrease of HBeAg,"Hepatitis B Virus (HBV) [2]; Example 7 Group D, 2.0 mg/kg AD04982, day 15",3.2 fold

# From US20190255091A1, “RNAi AGENTS FOR [sequence] B VIRUS INFECTION” (priority 2016, published 2019)
